In the NIST ThermoML archive (doi:10.1021/je060411g):
± gives the expanded uncertainty stated by the source.

Experiments:
[1] = Molar enthalpy of transition or fusion

SMILES | Triple point temperature (Crystal 1) | Triple point temperature (Crystal 2) | Molar enthalpy of transition or fusion ([1]; Crystal 1) | Molar enthalpy of transition or fusion ([1]; Crystal 2) | Triple point temperature (Crystal 3) | Molar enthalpy of transition or fusion ([1]; Crystal 3) | Triple point temperature (Crystal) | Glass transition temperature | Glass transition temperature (Adiabatic calorimetry)
CC(C)(C)CO [2,2-dimethyl-1-propanol] | 328.2 ± 0.4 K | 233.3 ± 1 K | 0.693 ± 0.0478 kcal/mol | 0.98 ± 0.0478 kcal/mol |  |  |  |  | 
CCC(C)(C)O [2-methylbutan-2-ol] | 264.7 ± 0.4 K | 215 ± 1 K | 0.478 ± 0.0478 kcal/mol |  | 145.8 ± 0.4 K | 0.215 ± 0.0239 kcal/mol |  |  | 
CCC(O)CC [3-pentanol] |  |  | 0.397 ± 0.0478 kcal/mol |  |  |  | 203.2 ± 0.4 K | -143 ± 5 °C | 
CCC(C)CO (stereo not drawn) [2-methyl-1-butanol] |  |  |  |  |  |  |  |  | -155 ± 5 °C
